According to paper PMC4224687 (Journal of Controlled Release, 2014):

Assay type: in vivo, male Sprague-Dawley rats
Conditions: rats, saline solution, 50 mg/kg

oral absorption: not absorbed
Compound: CO[C@H]1O[C@H](COS(=O)(=O)O)[C@@H](O[C@@H]2O[C@@H](C(=O)O)[C@@H](O[C@H]3O[C@H](COS(=O)(=O)O)[C@@H](O[C@@H]4O[C@H](C(=O)O)[C@@H](O[C@H]5O[C@H](COS(=O)(=O)O)[C@@H](O)[C@H](O)[C@H]5NS(=O)(=O)O)[C@H](O)[C@H]4O)[C@H](OS(=O)(=O)O)[C@H]3NS(=O)(=O)O)[C@H](O)[C@H]2OS(=O)(=O)O)[C@H](O)[C@H]1NS(=O)(=O)O [Fpx, Fondaparinux]
